# From patent US12728120B2, “Prevention or treatment of brain disease and adverse effects of cholinesterase inhibitors” (DR. NOAH BIOTECH INC., priority 2021, dated 2026)
# Where a name gives a salt, the structure may show the parent alone.
# Key:
# [1] = system: cerebral infarction-reperfusion model in Sprague-Dawley rats; assay: Rotarod test in MCAO-reperfusion stroke model; format: in vivo; settings: for Rotarod score (fall latency normalized to day 1), mean value: I.V. daily, FIG. 15
# Experimental: The Rotarod test was performed on the 1, 3, 7, 14, and 21 days after 45 minutes-MCAO (middle cerebral artery occlusion)-reperfusion modelling to induced ischemia (Brain Stroke). […] The animal was carefully placed on a rotating rod (JD-A-07RA5, BS Technolab Inc., Korea) and the time (second) that animal was fallen was measured. The speed of rotating rod was increased from 4 rpm to 40 rpm for 300 second. […] For rotarod latency test, Nested one-way ANOVA and Two-way ANOVA was used to analyze significance between the groups on each day. Statistical analysis was performed using Prism 9 (GraphPad Software Inc., San Diego, CA, USA) and statistical significance was set at a P-value of less than 0.05.
# [2] = system: pCREB; assay: pCREB expression (western blot) in primary cultured neurons; format: cell-based, mice; settings: mouse primary neuro-glia culture, 4 days treatment, β-actin normalized; FIG. 14C
# Experimental: (§1) To evaluate the synaptic plasticity, primary neuro-glia culture was prepared from cortices of embryonic day 16 C57/BL6 mice. Cells were collected by mechanical dissection and chemical dissociation with trypsin and DNase treatment and cultured in Neurobasal (NB) and MEM media supplemented with 1% B-27, 2 mM L-glutamine, 5% Fetal Bovine Serum, 5% Horse Serum, 1×MEM-NEAA (non-essential amino acids), and 1% Penicillin-Streptomycin (PS). Cells were cultured in Poly-D-Lysine+Laminin-coated 6-well plates at 2×10^6 cells/well in growth media. After 3 days in vitro (DIV 3), media was changed to NB media supplemented with 2% B-27, 2 mM L-glutamine, and 1% PS. […] Protein was resolved by 8% SDS-PAGE electrophoresis, transferred to polyvinylidene difluoride membranes and blocked with 5% non-fat dry milk for 1 hour at RT. Membrane was immunoblotted using following antibodies; primary antibody: PSD-95 (Abcam, ab18258, 1:2,000), phospho-CREB (Millipore, #06-519, 1:2,000), β-actin (Cell signaling, #3700, 1:3,000), and secondary antibody:HRP-conjugated anti-mouse IgG (AbFrontier, LF-SA8001, 1:5,000), HRP-conjugated anti-rabbit IgG (AbFrontier, LF-SA8002, 1:5,000). Signal was visualized by chemiluminescence methods using ECL solution and imaged using ImageQuant LAS 500 system. […]
# [3] = system: PSD-95; assay: PSD-95 expression (western blot) in primary cultured neurons; format: cell-based, mice; settings: mouse primary neuro-glia culture, 4 days treatment, β-actin normalized; FIG. 14B
# Experimental: as §1
# [4] = system: neuronal cells (SH-SY5Y); assay: ROS production (DCF-DA) in H2O2-treated SH-SY5Y cells; format: cell-based; settings: 100 μM H2O2 24 hours, DONE alone 5 uM, NAC alone 5 uM, NDC = DONE 2.5 uM + NAC 2.5 uM, FIG. 3
# Experimental: SH-SY5Y cells were plated in 96 well plates at 2×10^5 cells/well in DMEM supplemented with 10% fetal bovine serum (FBS; YOUNG IN, US-FBS-500) and 1% penicillin-streptomycin (P-S; Gibco, 15070063). Six hours after seeding, SH-SY5Y cells were treated with 100 μM H2O2 for 24 hours (Sigma, #323381) followed by incubation with DONE alone, NAC alone, and combination of DONE and NAC. After incubation, ROS activity in the cell was measured by adding DCF-DA (Thermo, #D399) containing media. Absorbance was measured using a Synergy HTX Multi-Mode reader (Biotek) with 465 nm excitation and 540 nm emission. Measured fluorescence was normalized to control as follows: (drug-treated group OD−DCF-DA alone O.D)/(control O.D−DCF alone O.D)*100.
# [5] = system: microglia cells (BV2); assay: NO assay (Griess reagent) in LPS-treated BV2 microglial cells; format: cell-based; settings: donepezil HCl alone, antioxidant alone or combination, FIG. 8
# Experimental: Briefly, BV2 microglial cells were plated in 96-well plates at 2×10^5 cells/well in DMEM high glucose medium (Welgene, LM001-05) supplemented with 10% fetal bovine serum (FBS; YOUNG IN, US-FBS-500) and 1% penicillin-streptomycin (P-S; Gibco, 15070063).
# After incubation, NO levels were quantified from half of the cell media using a Griess reagent assay kit (Promega, G2930). Colorimetric changes in the media and Griess reagent mixture were measured using a Synergy HTX Multi-Mode reader (Biotek) at 540 nm. All data were analyzed using the GraphPad Prism 9 software. Statistical significance was assessed using a one-way ANOVA or two-way ANOVA followed by Dunnett's post-hoc analysis unless otherwise noted. All data are presented as the mean±SEM, and significance was set at P<0.05. […] (*P<0.05, **P<0.01, ***P<0.001, ****P<0.0001, one-way ANOVA).
# [6] = system: neural progenitor cells; assay: Number of viable cells (cytotoxicity) in neural progenitor cells; settings: with donepezil, NAC or their combination; FIG. 13B
compound,measurement,setting,value
"COc1cc2c(cc1OC)C(=O)C(CC1CCN(Cc3ccccc3)CC1)C2 (stereo not shown) [Donepezil-HCl, donepezil]",Rotarod score normalized to VEH (100%),[1]; day 3 after MCAO,93.92%
same,"Rotarod score (fall latency normalized to day 1), mean value",[1]; day 3 after MCAO,15.77
same,"Rotarod score (fall latency normalized to day 1), mean value",[1]; day 7 after MCAO,30.61
same,Rotarod score normalized to VEH (100%),[1]; day 14 after MCAO,81.08%
same,"Rotarod score (fall latency normalized to day 1), mean value",[1]; day 14 after MCAO,39.30
same,Rotarod score normalized to VEH (100%),[1]; day 21 after MCAO,77.68%
same,"Rotarod score (fall latency normalized to day 1), mean value",[1]; day 21 after MCAO,49.53
same,"pCREB expression, mean value normalized to untreated control (CTL 1.0)",[2],0.92
same,"PSD-95 expression, mean value normalized to untreated control (CTL 1.0)",[3],1.20
same,"ROS, mean value normalized to control (CTL 100%)",[4],76.52%
COc1ccc([C@H]2OC[C@H]3[C@@H]2CO[C@H]3c2ccc(O[C@@H]3O[C@H](CO)[C@@H](O)[C@H](O)[C@H]3O)c(OC)c2)cc1OC [Forsythin],"NO, mean value relative to LPS (100%)",[5],89.97%
O=C(O)CCCCC1CCSS1 (stereo not shown) [Thioctic acid],"NO, mean value relative to LPS (100%)",[5],68.45%
CO[C@H]1C[C@@H]2CC[C@@H](C)[C@@](O)(O2)C(=O)C(=O)N2CCCC[C@H]2C(=O)O[C@H]([C@H](C)C[C@@H]2CC[C@@H](O)[C@H](OC)C2)CC(=O)[C@H](C)/C=C(\C)[C@@H](O)[C@@H](OC)C(=O)[C@H](C)C[C@H](C)/C=C/C=C/C=C/1C [rapamycin],cytotoxicity on addition of rapamycin,[6],did not induce cytotoxicity
